Like-named read-outs stand apart in the source and are kept apart here.
Assays:
[1] = test system: NFAT transcriptional activity in NFAT-transfected HeLa cells; experiment: NFAT luciferase reporter assay; type: cell-based; settings: stimulated with TPA and ionomycin (FIGS. 16-20)
Protocol: To assay for NFAT luciferase activity, 30 000 HeLa cells were plated per well in 24-well plates, and transfected with 50 ng GFP-NFAT plasmid (Addgene plasmid #24219, gift of Jerry Crabtree (Beals C R, Clipstone N A, Ho S N, Crabtree G R. Nuclear localization of NF-ATc by a calcineurin-dependent, cyclosporin-sensitive intramolecular interaction. Genes Dev 1997 Apr. 1; 11(7):824-34)), 50 ng NFAT-luciferase (Addgene plasmid #10959, gift of Toren Finkel (Ichida M, Finkel T. Ras regulates NFAT3 activity in cardiac myocytes. J Biol Chem 2001 Feb. 2; 276(5):3524-30)), and 5 ng pRL-TK, using 0.4 μl Genecellin™ Transfection Reagent (Celtic Molecular Diagnostics, South Africa). The NFAT-luciferase reporter plasmid contains three tandem repeats of a 30 bp fragment of the IL-2 promoter known to bind NFAT. The following day cells were treated with 10 or 15 μM Compound A and after an overnight incubation, stimulated with 100 nM TPA (Sigma) and 1.3 μM Ionomycin (Santa Cruz Biotechnology, Santa Cruz, Calif., USA) for 5 hours, following which luciferase activity was measured.
An assay for nuclear NFAT following ionomycin and Compound A treatment was carried out, using an NFAT-luciferase reporter that is activated by nuclear NFAT. The phorbol ester TPA was used to co-stimulate NFAT, as it has been shown previously that TPA and ionomycin elicit synergistic stimulation of NFAT luciferase activity (Northrop J P, Ullman K S, Crabtree G R. Characterization of the nuclear and cytoplasmic components of the lymphoid-specific nuclear factor of activated T cells (NF-AT) complex. J Biol Chem 1993 Feb. 5; 268(4):2917-23).

[2] = test system: HeLa cervical cancer cell line; experiment: MTT assay for cell viability, IC50 determination; type: cell-based; settings: Homo sapiens, HeLa, HeLa, read-out: IC50
Protocol: (§1) Cells were plated in 96-well plates and treated with varying concentrations of a test compound for 48 hours, after which MTT dye, 3-(4,5-dimethylthiazol-2-yl)-2,5-diphenyltetrazolium bromide (Sigma), was added, and crystals solubilised 4 hours later using Solubilisation Reagent (10% SLS in 0.01 M HCl). Absorbencies were measured at 595 nm the following day using a BioTek microplate spectrophotometer (Winooski, Vt., USA) and IC50 curves were generated using GraphPad Prism.

[3] = test system: FG0 normal skin fibroblasts (non-cancer); experiment: MTT assay for cell viability, IC50 determination; type: cell-based; settings: Skin fibroblast, 48 hours
Protocol: as §1

[4] = test system: CaSki cervical cancer cell line; experiment: MTT assay for cell viability, IC50 determination; type: cell-based; settings: Homo sapiens, Ca-Ski, read-out: IC50
Protocol: as §1

[5] = test system: p65 nuclear import (Kpnβ1 cargo protein); experiment: Percentage of nuclear and cytoplasmic p65 (FIG. 4); type: cell-based
[6] = test system: PARP cleavage in CaSki cells; experiment: PARP cleavage analysis by Western Blot; type: cell-based; settings: IC50 and twice the IC50 (FIG. 5), varying concentrations 12 hours (FIG. 26)
Protocol: CaSki cells were treated with varying concentrations of Compound A for 12 hours, following which cells and cell floaters were harvested using RIPA buffer (10 mM Tris-Cl, pH 7.4, 150 mM NaCl, 1% sodium deoxycholate, 0.1% SDS, 1% Triton X-100, 1× complete protease inhibitor cocktail (Roche, Mannheim, Germany)) and Western Blot analysis performed, using a rabbit anti-Parp1/2 (H-250) antibody (sc-7150).

cancer cell lines = experiment: MTT cell viability, summary statements over panels of cancer cell lines; type: cell-based
Protocol: as §1

[7] = test system: HeLa cancer cells and FG0 non-cancer cells; experiment: Cell proliferation monitored using the MTT assay (FIGS. 6 and 7); type: cell-based; settings: increasing concentrations; HeLa and FG0 (FIGS. 6 and 7)
[8] = test system: EPC2 (EPC2-hTERT normal immortalised oesophageal epithelial cells); experiment: MTT assay for cell viability, IC50 determination; type: cell-based; settings: Homo sapiens, compound in salt form
Protocol: as §1

[9] = test system: MCF7 breast cancer cell line; experiment: MTT assay for cell viability, IC50 determination; type: cell-based; settings: Homo sapiens
Protocol: as §1

[10] = test system: KYSE150 oesophageal cancer cell line; experiment: MTT assay for cell viability, IC50 determination; type: cell-based; settings: Homo sapiens, KYSE-150
Protocol: as §1

[11] = test system: DMB normal skin fibroblasts (non-cancer); experiment: MTT assay for cell viability, IC50 determination; type: cell-based; settings: Skin fibroblast
Protocol: as §1

[12] = test system: WI38 non-cancer cell line; experiment: MTT assay for cell viability, IC50 determination; type: cell-based; settings: Homo sapiens, WI-38
Protocol: as §1

[13] = test system: MDA-MB-231 breast cancer cell line; experiment: MTT assay for cell viability, IC50 determination; type: cell-based; settings: Homo sapiens
Protocol: as §1

[14] = test system: SVWI38 transformed cell line; experiment: MTT assay for cell viability, IC50 determination; type: cell-based
Protocol: as §1

[15] = MTT assay for cell viability, IC50 determination; type: cell-based; settings: Homo sapiens, MCF-12A, MCF12A
Protocol: as §1

[16] = test system: WHCO5 oesophageal cancer cell line; experiment: MTT assay for cell viability, IC50 determination; type: cell-based, human; settings: Homo sapiens
Protocol: as §1

[17] = CaSki and HeLa (Tables 2 and 3), read-out: IC50 values (cancer cell-killing effects)

Row | Molecule | NFAT activation (NFAT-luciferase reporter) [1] | IC50 ([2]; 48 h, 48 hours, MTT) | IC50 ([4]; 48 h, MTT) | IC50 [8] | IC50 ([9]; compound in salt form) | IC50 ([10]; Kyse150, compound in salt form) | IC50 ([2]; compound in salt form) | IC50 ([11]; DMB, compound in salt form) | IC50 ([12]; WI38, compound in salt form) | IC50 ([4]; compound in salt form) | IC50 ([13]; compound in salt form) | IC50 ([14]; SVWI38, compound in salt form) | IC50 ([15]; compound in salt form) | IC50 ([16]; compound in salt form) | also measured
1 | Cc1cccc(CN2CCOc3c(cc(-c4ccc(C)s4)cc3OCC3CCCN(C)C3)C2)n1 (stereo not shown) [Compound II, 9-[(1-methylpiperidin-3-yl)methoxy]-4-[(6-methylpyridin-2-yl)methyl]-7-(5-methylthiophen-2-yl)-3,5-dihydro-2H-1,4-benzoxazepine] | significantly diminished NFAT activation | 14.4 µM | 11.4 µM | – | – | – | – | – | – | – | – | – | – | – | IC50 [3]: 17.2 µM; nuclear import of Kpnβ1 cargo protein (percentage of nuclear p65 relative to cytoplasmic p65) [5]: inhibit the nuclear import of Kpnβ1 cargo protein; PARP cleavage as an indicator of apoptosis [6]: induce cancer cell death via apoptosis; IC50 (cancer cell lines; [17]): < 50 µM; cell proliferation [7]: inhibit cell proliferation
2 | COc1cc2ncnc(Nc3cccc(Cl)c3)c2cc1OC [AG 1478, reference compound] | no change | – | – | – | – | – | – | – | – | – | – | – | – | – | –
3 | CC(C)Cc1ccc(CNCc2cccnc2N2CCCN(C)CC2)s1 [Compound XII, 1-(5-isobutyl-2-thienyl)-N-[[2-(4-methyl-1,4-diazepan-1-yl)-3-pyridyl]methyl]methanamine] | – | – | 27.4 µM | 41.6 µM | 44.9 µM | 25.5 µM | 23.1 µM | 57 µM | 33.8 µM | 27.4 µM | 30 µM | 31.3 µM | 34.1 µM | 20.3 µM | –
4 | Cc1csc2nc(CNCc3cc4cc5c(cc4n(CCN4CCCCC4)c3=O)CCC5)cn12 [Compound XI, 3-[[(3-methylimidazo[2,1-b]thiazol-6-yl)methylamino]methyl]-1-[2-(1-piperidyl)ethyl]-7,8-dihydro-6H-cyclopenta[g]quinolin-2-one] | – | – | 26.9 µM | – | 95 µM | 40.1 µM | 33.1 µM | 31.2 µM | 35 µM | 26.9 µM | 32.7 µM | 41.1 µM | 61.8 µM | 17 µM | –
5 | Cc1ccc(OC[C@@H](O)CNCc2ccc3c(c2)OCO3)cc1C [Compound XIII, 1-(benzo[1,3]dioxol-5-ylmethylamino)-3-(3,4-dimethylphenoxy)-propan-2-ol] | – | – | 39.5 µM | 34.6 µM | 44.5 µM | 98.4 µM | 53.6 µM | 93 µM | 36.2 µM | 39.5 µM | 33 µM | 42.1 µM | 49.3 µM | 40.1 µM | –
6 | Clc1ccccc1COc1nc2cc3c(cc2cc1CNCc1cn2c(n1)SCC2)CCC3 [Compound IV, ({2-[(2-chlorophenyl)methoxy]-6H,7H,8H-cyclopenta[g]quinolin-3-yl}methyl)({2H,3H-imidazo[2,1-b][1,3]thiazol-6-ylmethyl})amine] | – | 8.62 µM | 8.69 µM | – | – | – | – | – | – | – | – | – | – | – | IC50 ([9]; 48 hours, MTT): 14 µM; IC50 ([10]; KYSE150, 48 hours, MTT): 11.2 µM; IC50 ([11]; DMB non-cancer, 48 hours, MTT): 8.27 µM; IC50 ([12]; WI38 non-cancer, 48 hours, MTT): 25.1 µM; IC50 ([13]; 48 hours, MTT): 8.01 µM; IC50 ([14]; SVWI38 transformed, 48 hours, MTT): 12.9 µM; IC50 ([15]; 48 hours, MTT): 11.4 µM; IC50 (cancer cell lines; CaSki, HeLa, WHCO5, KYSE150, MCF12A, MCF7, MDA-MB-231, SVW138 (Table 4), read-out: IC50 values): 8 to 18 µM; IC50 ([16]; 48 h, MTT): 17.9 µM
7 | CNC(=O)[C@@H]1C[C@H](NCc2ccc(OC)c3ccccc23)CN1Cc1ccccc1 [Compound III, (2S,4S)-1-benzyl-4-{[(4-methoxynaphthalen-1-yl)methyl]amino}-N-methylpyrrolidine-2-carboxamide] | significantly diminished NFAT activation | 19.9 µM | 34.1 µM | – | – | – | – | – | – | – | – | – | – | – | IC50 [3]: 44.9 µM; nuclear import of Kpnβ1 cargo protein (percentage of nuclear p65 relative to cytoplasmic p65) [5]: inhibit the nuclear import of Kpnβ1 cargo protein; PARP cleavage as an indicator of apoptosis [6]: induce cancer cell death via apoptosis; IC50 (cancer cell lines; [17]): < 50 µM; cell proliferation [7]: inhibit cell proliferation
8 | Cc1csc2nc(CNCc3cc4cc5c(cc4n(CC4CCCCC4)c3=O)CCC5)cn12 [Compound X, 1-(cyclohexylmethyl)-3-[[(3-methylimidazo[2,1-b]thiazol-6-yl)methylamino]methyl]-7,8-dihydro-6H-cyclopenta[g]quinolin-2-one] | – | – | 26.7 µM | 9.37 µM | 23.7 µM | 32.2 µM | 21.5 µM | 69.3 µM | 39.4 µM | 26.7 µM | 22.1 µM | 33.5 µM | 11.7 µM | 20 µM | –
9 | Cc1cccc(N[C@@H](c2ccc(N(C)C)cc2)c2ccc3ccc(C)nc3c2O)n1 [Compound IX, 7-[(4-dimethylaminophenyl)-[(6-methyl-2-pyridyl)amino]methyl]-2-methyl-quinolin-8-ol] | – | – | 26.6 µM | 5.78 µM | 50.2 µM | 9.08 µM | 12.3 µM | 40.9 µM | 20.8 µM | 26.6 µM | 10.4 µM | 15.3 µM | 27.8 µM | 22.4 µM | –
10 | Ivermectin [reference compound] | significantly diminished | – | – | – | – | – | – | – | – | – | – | – | – | – | –

— patent publication US10220033B2, “Substituted benzoxazepine for cancer therapy” (University of Cape Town, priority 2014, dated 2019)
